Experimental data taken from patent publication US4743585A (Warner-Lambert Company, priority 1986, dated 1988).

Molecular target: T1, renin (Homo sapiens, UniProt P00797)
T1 sequence (P00797 67-406): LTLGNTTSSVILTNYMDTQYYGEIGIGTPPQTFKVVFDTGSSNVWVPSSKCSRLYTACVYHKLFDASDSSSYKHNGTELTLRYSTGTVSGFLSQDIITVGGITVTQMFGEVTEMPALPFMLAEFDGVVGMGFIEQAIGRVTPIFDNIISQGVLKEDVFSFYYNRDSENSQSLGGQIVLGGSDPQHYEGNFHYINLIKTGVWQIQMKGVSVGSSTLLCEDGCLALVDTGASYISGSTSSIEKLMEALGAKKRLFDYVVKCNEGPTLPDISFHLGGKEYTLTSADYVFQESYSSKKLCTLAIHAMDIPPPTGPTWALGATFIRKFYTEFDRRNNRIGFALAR
Test: in vitro renin inhibitory activity, standard radioimmunoassay for angiotensin I
Assay type: biochemical
Protocol: The effectiveness of the aforementioned compounds is determined by a test for in vitro renin inhibitory activity. This activity is determined by a standard radioimmunoassay for angiotensin I. In this assay the enzyme, renin, incubated for two hours at 37° in the presence of a substrate, angiotensinogen, generates the product, angiotensin I. Test compounds are added to the incubation mixture.

First: CC(C)C[C@@H](CN(Cc1ccccc1)C(=O)OCc1ccccc1)NC(=O)C[C@H](O)[C@H](CC(C)C)NC(=O)[C@@H](NC(=O)[C@H](Cc1ccccc1)NC(=O)OC(C)(C)C)C(C)C [Example 56, l-valinamide.N-[(1,1-dimethylethoxy)carbonyl]-L-phenylalanyl-N-[2-hydroxy-4-[[3-methyl-1-[[[(phenylmethoxy)carbonyl](phenylmethyl)amino]methyl]butyl]amino]-1-(2-methylpropyl)-4-oxobutyl]-, [2S-[1R*,2R*,4R*)]]-]
Second: CC(C)CC(=O)N[C@@H](Cc1ccccc1)C(=O)N[C@@H](Cc1c[nH]cn1)C(=O)N[C@@H](CC(C)C)[C@@H](O)CC(=O)N[C@@H](CC(C)C)CN(Cc1ccccc1)C(=O)OCc1ccccc1 [Example 57, L-histidinamide. N-(3-methyl-1-oxobutyl)-L-phenylalanyl-N-[2-hydroxy-4-[[3-methyl-1-[[[(phenylmethoxy)carbonyl](phenylmethyl)amino]methyl]butyl]amino]-1-(2-methylpropyl)-4-oxobutyl]-, [1S-[1R*,2R*,4(R*)]]-]
The IC50 of the first is 5.3-fold higher: 16 µM for the first, 3 µM for the second. The second is the more potent here.

First: CC(C)CC(=O)N[C@@H](Cc1ccccc1)C(=O)N[C@@H](Cc1c[nH]cn1)C(=O)N[C@@H](CC(C)C)[C@@H](O)CC(=O)N[C@H](CNCc1ccccc1)CC(C)C [Example 58, IVA-PHE-HIS-STA-LEU[CH2 NH]CH2 Ph]
Second: CC(C)CC(=O)N[C@@H](Cc1ccccc1)C(=O)N[C@@H](Cc1c[nH]cn1)C(=O)NC(CC(C)C)C(O)CC(CC(C)C)C(=O)NCc1ccccc1 (stereo partly drawn) [Example 76, L-Histidinamide, N-(3-methyl-1-oxobutyl)-L-phenylalanyl-N-[2-hydroxy-6-methyl-1-(2-methylpropyl)-4-[[(phenylmethyl)amino]carbonyl]heptyl]]
The IC50 of the first is 2.6-fold higher: 1.9 µM for the first, 0.74 µM for the second. The second is the more potent here.

Going from `CC(C)C[C@H](NC(=O)[C@H](C)NC(=O)C[C@H](O)[C@H](CC(C)C)NC(=O)[C@H](Cc1ccccc1)NC[C@H](Cc1ccccc1)NC(=O)OC(C)(C)C)[C@@H](O)CC(=O)NCc1ccccc1` [Example 59, BOC-PHE[CH2 NH]PHE-STA-ALA-STA-NHCH2 Ph] to `CC(C)C[C@H](NC(=O)C[C@H](O)[C@H](CC(C)C)NC(=O)[C@H](Cc1cncn1COCc1ccccc1)NC[C@H](Cc1ccccc1)NC(=O)OC(C)(C)C)C(=O)NCc1ccccc1` [Example 62, BOC-PHE[CH2 NH]HIS(BOM)-STA-LEU-NHCH2 Ph], the IC50 rises from 5.6 µM to 16 µM (2.9-fold).

Going from `Cc1c(C)c(C)c(C[C@H](CN[C@@H](Cc2c[nH]cn2)C(=O)N[C@@H](CC(C)C)[C@@H](O)CC(=O)N[C@@H](CC(C)C)C(=O)NC2CCN(Cc3ccccc3)CC2)NC(=O)OC(C)(C)C)c(C)c1C` [Example 61] to `CC(C)CC(CC(O)[C@H](CC1CCCCC1)NC(=O)OC(C)(C)C)C(=O)N[C@@H](CC(C)C)[C@@H](O)CC(=O)N[C@@H](CC(C)C)C(=O)NCc1ccccc1` (some centres unmarked) [Example 79], the IC50 falls from 30 µM to 3.8 µM (7.9-fold). The second is the more potent here.

First: CC(C)CC(=O)N[C@@H](Cc1ccccc1)C(=O)N[C@@H](Cc1c[nH]cn1)C(=O)N[C@H](CN[C@@H](CC(C)C)C(=O)NCc1ccccc1)CC(C)C [Example 65, L-histidinamide, N-(3-methyl-1-oxobutyl)-L-phenylalanyl-N-[3-methyl-1-[[[3-methyl-1-[[(phenylmethyl)amino]carbonyl]butyl]amino]methyl]butyl], [S-(R*,R*)]]
Second: CC(C)CC(=O)N[C@@H](Cc1ccccc1)C(=O)N[C@H](CN[C@@H](CC(C)C)[C@@H](O)CC(=O)N[C@@H](CC(C)C)C(=O)NCc1ccccc1)Cc1c[nH]cn1 [Example 66, 3,8,11,14-Tetraazaoctadecanamide, 6-hydroxy-10-(1H-imidazol-4-ylmethyl)-17-methyl-2,7-bis(2-methylpropyl)-4,12,15-triazo-N,13-bis(phenylmethyl)-, [2S-(2R*,6R*,7R*,10R*,13R*)]]
The IC50 of the first is 2.2-fold higher: 7.7 µM for the first, 3.5 µM for the second.

`CC(C)CC(=O)N[C@@H](Cc1ccccc1)C(=O)N[C@@H](Cc1c[nH]cn1)C(=O)N[C@H](CN[C@@H](CC(C)C)C(=O)NCc1ccccc1)CC1CCCCC1` [Example 70, L-histidinamide, N-(3-methyl-1-oxobutyl)-L-phenylalanyl-N-[1-cyclohexylmethyl]-2-[[3-methyl-1-[[(phenylmethyl)amino]carbonyl]butyl]amino]ethyl]-, [S-(R*,R*)]] and `CC(C)CC(=O)N[C@@H](Cc1ccccc1)C(=O)N[C@@H](Cc1c[nH]cn1)C(=O)N[C@@H](CC1CCCCC1)C(O)CC(CC(C)C)C(=O)NCc1ccccc1` (some centres unmarked) [Example 78] are within 1.5-fold of each other in IC50: 0.28 µM for the first, 0.24 µM for the second.

First: CC[C@H](C)[C@H](NC[C@@H](NC(=O)CC(C)C)[C@@H](C)CC)C(=O)N[C@@H](CC(C)C)[C@@H](O)CC(=O)N[C@@H](CC(C)C)C(=O)NCc1ccccc1 [Example 73, 3,8,11,14-tetraazaoctadecanamide, 6-hydroxy-17-methyl-10,13-bis(1-methylpropyl)-2,7-bis(2-methylpropyl)-4,9,15-trioxo-N-(phenylmethyl)]
Second: CC(C)CC(COC(C(=O)NC(CC(C)C)C(O)CC(=O)NC(C)C(=O)NC(CC(C)C)C(O)CC(=O)NCc1ccccc1)c1ccccc1)NC(=O)OC(C)(C)C (centres unmarked) [Example 75, 10,18-dihydroxy-14-methyl-3,9,17-tris-(2-methylpropyl)-7,12,15,20-tetraoxo-6,22-diphenyl-5-oxa-2,8,13,16,21-pentaazadocosanoic acid, 1,1-dimethylethyl ester]
The IC50 of the first is 1.5-fold higher: 30 µM for the first, 20 µM for the second.

`CCC(C)CNC(=O)CCC(O)[C@H](CC1CCCCC1)NC(=O)[C@H](Cc1c[nH]cn1)NC(=O)[C@H](Cc1cccc2ccccc12)NC(=O)OCc1ccccc1` (some centres unmarked) [Example 77] and `CC(C)CC(=O)N[C@@H](Cc1ccccc1)C(=O)N[C@@H](Cc1c[nH]cn1)C(=O)N[C@@H](CC1CCCCC1)C(O)CCC(=O)NCc1cccc(CN)c1` (some centres unmarked) [Example 80] are within 1.5-fold of each other in IC50: 1.6 µM for the first, 2.1 µM for the second.

Going from `CC(C)CC(=O)N[C@@H](Cc1ccccc1)C(=O)N[C@@H](Cc1c[nH]cn1)C(=O)N[C@@H](CC1CCCCC1)C(O)CC(CC(C)C)C(=O)NCc1cccc(CN)c1` (some centres unmarked) [Example 81] to `CC(C)CC(=O)N[C@@H](Cc1ccccc1)C(=O)N[C@@H](Cc1c[nH]cn1)C(=O)N[C@@H](CC1CCCCC1)C(O)CCC(=O)N[C@@H](CC(C)C)C(=O)NCc1cccc(CN)c1` (some centres unmarked) [Example 82], the IC50 rises from 0.054 µM to 0.12 µM (2.2-fold).

Going from `CCC(C)CNC(=O)/C=C/C(O)[C@H](Cc1ccccc1)NC(=O)[C@H](Cc1c[nH]cn1)NC(=O)[C@H](Cc1ccccc1)NC(=O)OC(C)(C)C` (some centres unmarked) [Example 84, BOC-PHE-HIS-PHE[CHOHCH=CHCO]NHCH2 CH(CH3)CH2 CH3] to `CCC(C)CNC(=O)CCC(O)[C@H](Cc1ccccc1)NC(=O)[C@H](Cc1c[nH]cn1)NC(=O)[C@H](Cc1ccccc1)NC(=O)OC(C)(C)C` (some centres unmarked) [Example 85, BOC-PHE-HIS-PHE[CHOHCH2 ]GLY-NHCH2 CH(CH3)CH2 CH3], the IC50 falls from 1.4 µM to 0.075 µM (19-fold).
